Calls of active or inactive are those of the source. No cut-off for these calls is given here.
Assays:
[1] = Lethal dose was determined in male Swiss-Webster mice by intravenous injection using up-and-down method; type: toxicity, organism-based; conditions: mouse, in vivo
[2] = Rate constant (cyclization rate) in CD3CN-deuterated phosphate buffer at pH 7.4; type: ADME
[3] = Half life was determined; type: ADME
[4] = tested on: Mus musculus; test: Peripheral muscarinic effect was evaluated in mice by intravenous injection; No visible tremors or salivation observed; type: functional, organism-based

For `CN(CC#CCOC(=O)Nc1cccc(Cl)c1)CCBr`, the LD50 [1] was 57.2 µmol/kg and the K1 [2] was 0.27 min⁻¹.

`CN(CC#CCOC(=O)Nc1cccc(Cl)c1)CCCl` showed a half-life [3] of 1.87 h, an LD50 [1] of 166 µmol/kg and a K1 [2] of 0.0089 min⁻¹. It also gave a K2 [2] of 0.099 min⁻¹.

For `C[N+](C)(C)CC#CCOC(=O)Nc1cccc(Cl)c1.[Cl-]`, the LD50 [1] was 3.7 µmol/kg and the Activity [4] was “inactive”.
